In US7138361B2, “Herbicidal heterocycles” (E. I. du Pont de Nemours and Company, priority 2000, dated 2006):

Assays:
Assay type in all cases: in vivo
[1] = tested on: Echinochloa oryzicola (Eor); assay: Test D greenhouse paddy-water test in rice; details: 21 days, 0-100 scale
Excerpt: (§1) Four plastic pots (ca. 16-cm diameter) per rate were partially filled with sterilized Tama silt loam soil comprised of a 35:50:15 ratio of sand, silt and clay and 2.6% organic matter. Separate plantings for each of the four pots were as follows. Seeds from the U.S. of Heteranthera limosa (Hl), Monochoria vaginalis (Mv), Ammania auriculata (Aa), and Sphenoclea zeylanica (Sz) were planted into one 16-cm pot for each rate. Seeds from the U.S. of Cyperus iria (Ci), Leptochloa fascicularis (Li), one stand of 9 or 10 direct-seeded rice seedlings (Oryza saliva cv. ‘Japonica—M202’; Oss), and one stand of 6 transplanted rice seedlings (Oryza sativa cv. ‘Japonica—M202’; Ost) were planted into one 16-cm pot for each rate. Seeds from the U.S. of Cyperus difformis (Cd), Alisma plantago-aquatica (Ap), and Scirpus mucronatus (Sm) were planted into one 16-cm pot for each rate. Seeds from the U.S. of Echinochloa crus-galli (Ecg), Echinochloa oryzicola (Eor), Echinochloa oryzoides (Eoz) and Echinochloa colonum (Ecc) were planted into one 16-cm pot for each rate. Plantings were sequential so that crop and weed species were at the 2.0 to 2.5-leaf stage at time of treatment.
(§2) Potted plants were grown in a greenhouse with day/night temperature settings of 29.5/26.7° C., and supplemental balanced lighting was provided to maintain a 16-hour photoperiod. Test pots were maintained in the greenhouse until test completion.
(§3) Chemical treatments consisting of Compound 1 of Index Table A (Cmpd 1), daimuron (Cmpd D), quinoclamine (Cmpd Q) and combinations thereof were formulated in acetone. At time of treatment, test pots were flooded to 3 cm above the soil surface, treated by application of test compounds directly to the paddy water, and then maintained at that water depth for the duration of the test. Effects of treatments on rice and weeds were visually evaluated by comparison to untreated controls after 21 days. Plant response ratings are reported on a 0 to 100 scale; where 0 is no effect and 100 is complete control. ND means no data.
(§4) Colby's equation was used to calculate the expected additive herbicidal effect of the mixtures of Compound 1 with daimuron (Cmpd D) and quinoclamine (Cmpd Q). Colby's equation (Colby, S. R “Calculating Synergistic and Antagonistic Responses of Herbicide Combinations,” Weeds, 15(1), pp 20–22 (1967)) calculates the expected additive effect of herbicidal mixtures, and for two active ingredients is of the form: Pa+b=Pa+Pb−(PaPb/100) wherein Pa+b is the percentage effect of the mixture expected from additive contribution of the individual components, • Pa is the observed percentage effect of the first active ingredient at the same use rate as in the mixture, and • Pb is the observed percentage effect of the second active ingredient at the same use rate as in the mixture.

[2] = tested on: Monochoria vaginalis (Mv); assay: Test D greenhouse paddy-water test in rice; details: 21 days, 0-100 scale
Excerpt: as §1, §2, §3, §4

Cyperus iria (Ci) = assay: Test D greenhouse paddy-water test in rice; details: 21 days, 0-100 scale
Excerpt: as §1, §2, §3, §4

Scirpus mucronatus (Sm) = assay: Test D greenhouse paddy-water test in rice; details: 21 days, 0-100 scale
Excerpt: as §1, §2, §3, §4

Heteranthera limosa (Hl) = assay: Test D greenhouse paddy-water test in rice; details: 21 days, 0-100 scale
Excerpt: as §1, §2, §3, §4

Ammania auriculata (Aa) = assay: Test D greenhouse paddy-water test in rice; details: 21 days, 0-100 scale
Excerpt: as §1, §2, §3, §4

[3] = tested on: Echinochloa colonum (Ecc); assay: Test D greenhouse paddy-water test in rice; details: 21 days, 0-100 scale
Excerpt: as §1, §2, §3, §4

Cyperus difformis (Cd) = assay: Test D greenhouse paddy-water test in rice; details: 21 days, 0-100 scale
Excerpt: as §1, §2, §3, §4

[4] = tested on: Alisma plantago-aquatica (Ap); assay: Test D greenhouse paddy-water test in rice; details: 21 days, 0-100 scale
Excerpt: as §1, §2, §3, §4

[5] = tested on: downy brome (Bromus tectorum); assay: Test C postemergence
How it was run: (§5)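 Compounds in non-phytotoxic solvent with surfactant applied preemergence to planted seeds and postemergence to plants at 1- to 4-leaf stage (2–18 cm). Kept in greenhouse 12–14 days, then visually rated against controls on a 0 (no effect) to 100 (complete control) scale.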

wild oat (Avena fatua) = assay: Test C postemergence
How it was run: as §5

[6] = Rate 125 g/ha, scale 0 to 100, 0 no effect, 100 complete control
[7] = Rate 250 g/ha, scale 0 to 100 (0 no effect, 100 complete control)
[8] = Rate 500 g/ha, scale 0 to 100 (0 no effect, 100 complete control)

CC(C)(C)c1ccn(C2SCN(c3cccc(C(F)(F)F)c3)C2=O)n1 (stereo not shown) [Compound 1]
60: Obs. (observed effect) Sm (Scirpus mucronatus (Sm); 32 g/ha alone)
40: Obs. (observed effect) Eor ([1]; 125 g/ha alone) | Obs. (observed effect) Hl (Heteranthera limosa (Hl); 64 g/ha alone)
100: Obs. (observed effect) Eor ([1]; 250 g/ha alone) | Obs. (observed effect) Eor ([1]; 500 g/ha alone) | Obs. (observed effect) Mv ([2]; 32 g/ha alone) | Obs. (observed effect) Mv ([2]; 64 g/ha alone) | Obs. (observed effect) Mv ([2]; 125 g/ha alone) | Obs. (observed effect) Mv ([2]; 250 g/ha alone) | Obs. (observed effect) Mv ([2]; 500 g/ha alone) | Obs. (observed effect) Ci (Cyperus iria (Ci); 64 g/ha alone) | Obs. (observed effect) Ci (Cyperus iria (Ci); 125 g/ha alone) | Obs. (observed effect) Ci (Cyperus iria (Ci); 250 g/ha alone) | Obs. (observed effect) Ci (Cyperus iria (Ci); 500 g/ha alone) | Obs. (observed effect) Sm (Scirpus mucronatus (Sm); 64 g/ha alone) | Obs. (observed effect) Sm (Scirpus mucronatus (Sm); 125 g/ha alone) | Obs. (observed effect) Sm (Scirpus mucronatus (Sm); 250 g/ha alone) | Obs. (observed effect) Sm (Scirpus mucronatus (Sm); 500 g/ha alone) | Obs. (observed effect) Hl (Heteranthera limosa (Hl); 250 g/ha alone) | Obs. (observed effect) Hl (Heteranthera limosa (Hl); 500 g/ha alone) | Obs. (observed effect) Aa (Ammania auriculata (Aa); 125 g/ha alone) | Obs. (observed effect) Aa (Ammania auriculata (Aa); 250 g/ha alone) | Obs. (observed effect) Aa (Ammania auriculata (Aa); 500 g/ha alone) | Obs. (observed effect) Ecc ([3]; 64 g/ha alone) | Obs. (observed effect) Ecc ([3]; 125 g/ha alone) | Obs. (observed effect) Ecc ([3]; 250 g/ha alone) | Obs. (observed effect) Ecc ([3]; 500 g/ha alone) | Obs. (observed effect) Cd (Cyperus difformis (Cd); 32 g/ha alone) | Obs. (observed effect) Cd (Cyperus difformis (Cd); 64 g/ha alone) | Obs. (observed effect) Cd (Cyperus difformis (Cd); 125 g/ha alone) | Obs. (observed effect) Cd (Cyperus difformis (Cd); 250 g/ha alone) | Obs. (observed effect) Cd (Cyperus difformis (Cd); 500 g/ha alone) | Obs. (observed effect) Ap ([4]; 32 g/ha alone) | Obs. (observed effect) Ap ([4]; 64 g/ha alone) | Obs. (observed effect) Ap ([4]; 125 g/ha alone) | Obs. (observed effect) Ap ([4]; 250 g/ha alone) | Obs. (observed effect) Ap ([4]; 500 g/ha alone)
30: Obs. (observed effect) Eor ([1]; 64 g/ha alone)
95: Obs. (observed effect) Ci (Cyperus iria (Ci); 32 g/ha alone) | Obs. (observed effect) Aa (Ammania auriculata (Aa); 64 g/ha alone)
0: Obs. (observed effect) Eor ([1]; 32 g/ha alone) | Obs. (observed effect) Ecc ([3]; 32 g/ha alone)
90: Obs. (observed effect) Hl (Heteranthera limosa (Hl); 125 g/ha alone)
85: Obs. (observed effect) Aa (Ammania auriculata (Aa); 32 g/ha alone)

CC1(c2ccn(C3OCN(c4cccc(OC(F)(F)F)c4)C3=O)n2)CC1 (stereo not shown) [Compound 69]
20: Plant response rating, Wild Oat (wild oat (Avena fatua); [8])
0: Plant response rating, Downy Brome ([5]; Rate 62 g/ha, scale 0 to 100) | Plant response rating, Downy Brome [5, 6] | Plant response rating, Downy Brome [5, 7] | Plant response rating, Downy Brome [5, 8] | Plant response rating, Wild Oat (wild oat (Avena fatua); Rate 62 g/ha, scale 0 to 100) | Plant response rating, Wild Oat (wild oat (Avena fatua); [6]) | Plant response rating, Wild Oat (wild oat (Avena fatua); [7])
